Laboratory results from ChEMBL document CHEMBL3352489, “6-Hydroxyquinolinium salts differing in the length of alkyl side-chain: synthesis and antimicrobial activity” (Bioorg Med Chem Lett, 2014).

Tests used:
[1] = system: Staphylococcus epidermidis; assay: microbe, parasite or virus in culture; assay type: functional; details: H 6966/08, 48 h
Description: Antibacterial activity against Staphylococcus epidermidis H 6966/08 after 48 hrs by microdilution broth method

Klebsiella pneumoniae [2] = assay: Bactericidal activity against Klebsiella pneumoniae D 11750/08 after 24 hrs by microdilution broth method; assay type: functional; details: D 11750/08, 24 h, read-out: MBC>99.9
Klebsiella pneumoniae [3] = assay: microbe, parasite or virus in culture; assay type: functional; details: D 11750/08, 24 h
Description: Antibacterial activity against Klebsiella pneumoniae D 11750/08 after 24 hrs by microdilution broth method

Pichia kudriavzevii [4] = assay: Fungicidal activity against Candida krusei E28 after 48 hrs by modified standard CSLI M27-A2 method; assay type: functional; details: E28, 48 h
Pseudomonas aeruginosa [5] = assay: microbe, parasite or virus in culture; assay type: functional; details: CCM 1961, 120 h
Description: Antibacterial activity against Pseudomonas aeruginosa CCM 1961 after 120 hrs by microdilution broth method

Klebsiella pneumoniae [6] = assay: Bactericidal activity against Klebsiella pneumoniae J 14368/08 after 48 hrs by microdilution broth method; assay type: functional; details: J 14368/08, 48 h, read-out: MBC>99.9
Enterococcus sp. [7] = assay: microbe, parasite or virus in culture; assay type: functional; details: J 14365/08, 48 h
Description: Antibacterial activity against Enterococcus sp. J 14365/08 after 48 hrs by microdilution broth method

Pichia kudriavzevii [8] = assay: Antifungal activity against Candida krusei E28 after 48 hrs by modified standard CSLI M27-A2 method; assay type: functional; details: E28, 48 h
Klebsiella pneumoniae [9] = assay: microbe, parasite or virus in culture; assay type: functional; details: J 14368/08, 24 h
Description: Antibacterial activity against Klebsiella pneumoniae J 14368/08 after 24 hrs by microdilution broth method

[10] = system: Trichophyton mentagrophytes; assay: Fungicidal activity against Trichophyton mentagrophytes 445 after 120 hrs by modified standard CSLI M27-A2 method; assay type: functional; details: Trichophyton mentagrophytes, 445, 120 h
Escherichia coli [11] = assay: microbe, parasite or virus in culture; assay type: functional; details: CCM 4517, 24 h
Description: Antibacterial activity against Escherichia coli CCM 4517 after 24 hrs by microdilution broth method

Lichtheimia corymbifera [12] = assay: microbe, parasite or virus in culture; assay type: functional; details: Lichtheimia corymbifera, 272, 48 h
Description: Antifungal activity against Absidia corymbifera 272 after 48 hrs by modified standard CSLI M27-A2 method

Nakaseomyces glabratus [13] = assay: Antifungal activity against Candida glabrata 20/I after 48 hrs by modified standard CSLI M27-A2 method; assay type: functional
Lichtheimia corymbifera [14] = assay: microbe, parasite or virus in culture; assay type: functional; details: Lichtheimia corymbifera, 272, 24 h
Description: Antifungal activity against Absidia corymbifera 272 after 24 hrs by modified standard CSLI M27-A2 method

Pseudomonas aeruginosa [15] = assay: microbe, parasite or virus in culture; assay type: functional; details: CCM 1961, 72 h
Description: Antibacterial activity against Pseudomonas aeruginosa CCM 1961 after 72 hrs by microdilution broth method

Escherichia coli [16] = assay: Bactericidal activity against Escherichia coli CCM 4517 after 48 hrs by microdilution broth method; assay type: functional; details: CCM 4517, 48 h, read-out: MBC>99.9
Candida tropicalis [17] = assay: microbe, parasite or virus in culture; assay type: functional; details: Candida tropicalis, 156, 24 h
Description: Antifungal activity against Candida tropicalis 156 after 24 hrs by modified standard CSLI M27-A2 method

Enterococcus sp. [18] = assay: Bactericidal activity against Enterococcus sp. J 14365/08 after 48 hrs by microdilution broth method; assay type: functional; details: J 14365/08, 48 h, read-out: MBC>99.9
[19] = system: Trichophyton mentagrophytes; assay: microbe, parasite or virus in culture; assay type: functional; details: Trichophyton mentagrophytes, 445, 120 h
Description: Antifungal activity against Trichophyton mentagrophytes 445 after 120 hrs by modified standard CSLI M27-A2 method

[20] = system: Trichophyton mentagrophytes; assay: microbe, parasite or virus in culture; assay type: functional; details: Trichophyton mentagrophytes, 445, 72 h
Description: Antifungal activity against Trichophyton mentagrophytes 445 after 72 hrs by modified standard CSLI M27-A2 method

Staphylococcus aureus [21] = assay: microbe, parasite or virus in culture; assay type: functional; details: CCM 4516/08, 24 h
Description: Antibacterial activity against Staphylococcus aureus CCM 4516/08 after 24 hrs by microdilution broth method

Candida tropicalis [22] = assay: Fungicidal activity against Candida tropicalis 156 after 48 hrs by modified standard CSLI M27-A2 method; assay type: functional; details: Candida tropicalis, 156, 48 h
Aspergillus fumigatus [23] = assay: microbe, parasite or virus in culture; assay type: functional; details: Aspergillus fumigatus, 231, 24 h
Description: Antifungal activity against Aspergillus fumigatus 231 after 24 hrs by modified standard CSLI M27-A2 method

Lichtheimia corymbifera [24] = assay: Fungicidal activity against Absidia corymbifera 272 after 48 hrs by modified standard CSLI M27-A2 method; assay type: functional; details: Lichtheimia corymbifera, 272, 48 h
Staphylococcus aureus [25] = assay: microbe, parasite or virus in culture; assay type: functional; details: H 5996/08, 48 h
Description: Antibacterial activity against Staphylococcus aureus H 5996/08 after 48 hrs by microdilution broth method

Nakaseomyces glabratus [26] = assay: Antifungal activity against Candida glabrata 20/I after 24 hrs by modified standard CSLI M27-A2 method; assay type: functional
[27] = system: Staphylococcus epidermidis; assay: microbe, parasite or virus in culture; assay type: functional; details: H 6966/08, 24 h
Description: Antibacterial activity against Staphylococcus epidermidis H 6966/08 after 24 hrs by microdilution broth method

Trichosporon asahii [28] = assay: microbe, parasite or virus in culture; assay type: functional; details: Trichosporon asahii, 1188, 48 h
Description: Antifungal activity against Trichosporon asahii 1188 after 48 hrs by modified standard CSLI M27-A2 method

Nakaseomyces glabratus [29] = assay: Fungicidal activity against Candida glabrata 20/I after 48 hrs by modified standard CSLI M27-A2 method; assay type: functional
Trichosporon asahii [30] = assay: microbe, parasite or virus in culture; assay type: functional; details: Trichosporon asahii, 1188, 24 h
Description: Antifungal activity against Trichosporon asahii 1188 after 24 hrs by modified standard CSLI M27-A2 method

Candida albicans [31] = assay: Fungicidal activity against Candida albicans ATCC 44859 after 48 hrs by modified standard CSLI M27-A2 method; assay type: functional; details: ATCC 44859, 48 h
Staphylococcus aureus [32] = assay: Bactericidal activity against Staphylococcus aureus H 5996/08 after 48 hrs by microdilution broth method; assay type: functional; details: H 5996/08, 48 h, read-out: MBC>99.9
Aspergillus fumigatus [33] = assay: microbe, parasite or virus in culture; assay type: functional; details: Aspergillus fumigatus, 231, 48 h
Description: Antifungal activity against Aspergillus fumigatus 231 after 48 hrs by modified standard CSLI M27-A2 method

Klebsiella pneumoniae [34] = assay: microbe, parasite or virus in culture; assay type: functional; details: D 11750/08, 48 h
Description: Antibacterial activity against Klebsiella pneumoniae D 11750/08 after 48 hrs by microdilution broth method

Candida tropicalis [35] = assay: microbe, parasite or virus in culture; assay type: functional; details: Candida tropicalis, 156, 48 h
Description: Antifungal activity against Candida tropicalis 156 after 48 hrs by modified standard CSLI M27-A2 method

Candida albicans [36] = assay: microbe, parasite or virus in culture; assay type: functional; details: ATCC 44859, 24 h
Description: Antifungal activity against Candida albicans ATCC 44859 after 24 hrs by modified standard CSLI M27-A2 method

[37] = Cytotoxicity against CHOK1 cells after 24 hrs by MTT assay; assay type: ADME, cell-based; details: Cricetulus griseus, CHO-K1, 24 h
Candida albicans [38] = assay: microbe, parasite or virus in culture; assay type: functional; details: ATCC 44859, 48 h
Description: Antifungal activity against Candida albicans ATCC 44859 after 48 hrs by modified standard CSLI M27-A2 method

Staphylococcus aureus [39] = assay: microbe, parasite or virus in culture; assay type: functional; details: H 5996/08, 24 h
Description: Antibacterial activity against Staphylococcus aureus H 5996/08 after 24 hrs by microdilution broth method

[40] = system: Staphylococcus epidermidis; assay: Bactericidal activity against Staphylococcus epidermidis H 6966/08 after 48 hrs by microdilution broth method; assay type: functional; details: H 6966/08, 48 h, read-out: MBC>99.9
Staphylococcus aureus [41] = assay: Bactericidal activity against Staphylococcus aureus CCM 4516/08 after 48 hrs by microdilution broth method; assay type: functional; details: CCM 4516/08, 48 h, read-out: MBC>99.9
Klebsiella pneumoniae [42] = assay: microbe, parasite or virus in culture; assay type: functional; details: J 14368/08, 48 h
Description: Antibacterial activity against Klebsiella pneumoniae J 14368/08 after 48 hrs by microdilution broth method

Escherichia coli [43] = assay: microbe, parasite or virus in culture; assay type: functional; details: CCM 4517, 48 h
Description: Antibacterial activity against Escherichia coli CCM 4517 after 48 hrs by microdilution broth method

Trichosporon asahii [44] = assay: Fungicidal activity against Trichosporon asahii 1188 after 48 hrs by modified standard CSLI M27-A2 method; assay type: functional; details: Trichosporon asahii, 1188, 48 h
Staphylococcus aureus [45] = assay: microbe, parasite or virus in culture; assay type: functional; details: CCM 4516/08, 48 h
Description: Antibacterial activity against Staphylococcus aureus CCM 4516/08 after 48 hrs by microdilution broth method

Aspergillus fumigatus [46] = assay: Fungicidal activity against Aspergillus fumigatus 231 after 48 hrs by modified standard CSLI M27-A2 method; assay type: functional; details: Aspergillus fumigatus, 231, 48 h
Enterococcus sp. [47] = assay: microbe, parasite or virus in culture; assay type: functional; details: J 14365/08, 24 h
Description: Antibacterial activity against Enterococcus sp. J 14365/08 after 24 hrs by microdilution broth method

Pichia kudriavzevii [48] = assay: Antifungal activity against Candida krusei E28 after 24 hrs by modified standard CSLI M27-A2 method; assay type: functional; details: E28, 24 h
Pseudomonas aeruginosa [49] = assay: Bactericidal activity against Pseudomonas aeruginosa CCM 1961 after 120 hrs by microdilution broth method; assay type: functional; details: CCM 1961, 120 h, read-out: MBC>99.9

## CCCCCCCCCCCCCC[N+](C)(C)Cc1ccccc1
[1]
  MIC95: 0.98 µM
Klebsiella pneumoniae [2]
  MBC: 7.81 µM
Klebsiella pneumoniae [3]
  MIC95: 7.81 µM
Pichia kudriavzevii [4]
  MFC: 125 µM
Pseudomonas aeruginosa [5]
  MIC95: 31.2 µM
Klebsiella pneumoniae [6]
  MBC: 7.81 µM
Enterococcus sp. [7]
  MIC95: 1.95 µM
Pichia kudriavzevii [8]
  MIC: 3.91 µM
Klebsiella pneumoniae [9]
  MIC95: 7.81 µM
[10]
  MFC: 15.6 µM
Escherichia coli [11]
  MIC95: 7.81 µM
Lichtheimia corymbifera [12]
  MIC: 31.2 µM
Nakaseomyces glabratus [13]
  MIC: 7.81 µM
Lichtheimia corymbifera [14]
  MIC: 31.2 µM
Pseudomonas aeruginosa [15]
  MIC95: 15.6 µM
Escherichia coli [16]
  MBC: 7.81 µM
Candida tropicalis [17]
  MIC: 3.91 µM
Enterococcus sp. [18]
  MBC: 7.81 µM
[19]
  MIC: 15.6 µM
[20]
  MIC: 15.6 µM
Staphylococcus aureus [21]
  MIC95: 0.98 µM
Candida tropicalis [22]
  MFC: 125 µM
Aspergillus fumigatus [23]
  MIC: 7.81 µM
Lichtheimia corymbifera [24]
  MFC: 125 µM
Staphylococcus aureus [25]
  MIC95: 1.95 µM
Nakaseomyces glabratus [26]
  MIC: 7.81 µM
[27]
  MIC95: 0.98 µM
Trichosporon asahii [28]
  MIC: 31.2 µM
Nakaseomyces glabratus [29]
  MFC: 125 µM
Trichosporon asahii [30]
  MIC: 31.2 µM
Candida albicans [31]
  MFC: 125 µM
Staphylococcus aureus [32]
  MBC: 3.91 µM
Aspergillus fumigatus [33]
  MIC: 15.6 µM
Klebsiella pneumoniae [34]
  MIC95: 7.81 µM
Candida tropicalis [35]
  MIC: 3.91 µM
Candida albicans [36]
  MIC: 7.81 µM
[37]
  IC50: 24 µM
Candida albicans [38]
  MIC: 7.81 µM
Staphylococcus aureus [39]
  MIC95: 1.95 µM
[40]
  MBC: 0.98 µM
Staphylococcus aureus [41]
  MBC: 3.91 µM
Klebsiella pneumoniae [42]
  MIC95: 7.81 µM
Escherichia coli [43]
  MIC95: 7.81 µM
Trichosporon asahii [44]
  MFC: 125 µM
Staphylococcus aureus [45]
  MIC95: 0.98 µM
Aspergillus fumigatus [46]
  MFC: 125 µM
Enterococcus sp. [47]
  MIC95: 1.95 µM
Pichia kudriavzevii [48]
  MIC: 3.91 µM
Pseudomonas aeruginosa [49]
  MBC: 62.5 µM
